Patent US10934224B2, “Production of arginine-rich proteins from wastewater and use as a fertilizer” (Genebiologics, LLC, priority 2016, dated 2021)

Legend:
[1] = tested on: Arabidopsis thaliana seeds; experiment: Arabidopsis thaliana seed germination and growth in liquid culture; assay type: in vivo; conditions: for root growth: 100 μg/ml in water; for optimal level (germination): day 4; for optimal level (biomass): day 5
Experimental: Approximately 300 Arabidopsis thaliana seeds were soaked in 75% ethanol for one minute, then soaked in 10% bleach, 0.02% TRITON×100 for five minutes, then washed five times with sterile water. The seeds were then resuspended in about 4 ml water, and dispensed into 30 Eppendorf tubes at approximately 100 microliters per tube, for a total of 8-9 seeds per tube. Test conditions included either water, 1× or 0.1×MS medium (Caisson; […] Root length and stem lengths are in mm.

[2] = Inhibition of cobalt binding to cation exchange resin; conditions: for effect on binding of cobalt to CM sepharose: 2.5 μM CoCl2, 0.95 μM inhibitor
Experimental: After sitting for 1 minute the sepharose was washed 2× with water to remove excess cobalt and inhibitor. The cobalt was then stripped from the column material with 50 μl of 50 mM EDTA and this cobalt-containing wash was made basic with 50 μl of 50 mM NaOH. The cobalt-containing wash was then monitored on a DU800 spectroscope at 463 nm wavelength for the data of Table 2 (FIG. 7), and from 350 nm to 650 nm for FIG. 5. The data of FIG. 5 and FIG. 7 were from separate experiments acquired on two different days.

E. coli strain NK5992 = experiment: Growth of E. coli arginine auxotroph on arginine or polyarginine; assay type: cell-based
Experimental: Cells were grown in triplicate at 37° C. on a 96-well plate with measurement at 600 nm using a Tecan InfiniteM200 pro.

[3] = cited from earlier work

polyarginine
root growth [1]: large amount of root growth | growth ([1]; 0.1× MS, 10 μg/ml, isolated case): increased growth | optimal level (germination) [1]: 100 µg/mL | optimal level (biomass) [1]: 100 µg/mL | effect on binding of cobalt to CM sepharose [2]: inhibited | growth of arginine auxotroph on the substance (E. coli strain NK5992; M9 medium, 37° C., 600 nm): does grow on polyarginine | growth relative to arginine monomer (E. coli strain NK5992; on a per-monomer equivalency): grows more poorly

N=C(N)NCCC[C@H](N)C(=O)O [arginine]
root growth [1]: not found | optimal level (germination) [1]: 100 µg/mL | effect on percent germination ([1]; day 4, added to 0.1×MS medium): same relative effect | optimal level (biomass) [1]: 100 µg/mL | effect on binding of cobalt to CM sepharose [2]: not by the presence of arginine | effect on binding of cobalt to CM sepharose ([2]; listed as Arginine): enhanced the binding of cobalt | competition with cobalt for binding to CM sepharose ([2]; 2.6-fold excess cobalt per arginine monomer, anionic sites limiting): did not compete | pKa of guanidinium group [3]: approximately 12.4
